This is an account of results in patent US20250236616A1, “IMMUNOMODULATING AZALIDES” (Zoetis Services LLC, priority 2021, published 2025).

Test [1] relates to H. somni. As to the kind of experiment: MIC, H. somni strains. The test is classed as cell-based. The following applies: for MIC values, range: H. somni strains. An excerpt: (§1) Primary screening of the compounds of the invention included the evaluation of antibacterial activity of analogs through determination of microbial inhibition concentration (MIC) as per CLSI guidelines. The screening panel included the relevant BRD pathogens: 1) M. haemolytica (e.g., 12726, 46571 and 49023, all AHDRCC; and 33396 (ATCC)); and 2) P. multocida (e.g., 34135 and 46572 (both AHDRCC) and 43137 (ATCC)). In some instances, H. somni (A700025K) pathogens were also included in the screening panel. The AHDRCC strains originated from the Zoetis BRD/SRD surveillance program and refer to the Animal Health Development and Research Culture Collection. In addition, the screen assessed S. aureus (29213 ATCC) as a representative Gram-positive isolate, E.faecalis (19433 ATCC) as a commensal gram-positive gastrointestinal bacterium and E. coli (100, 3110 and 25922 (ATCC)) for the evaluation of efflux potential. The screening panel BRD pathogens were assessed in determining antibacterial activity of the Formula (1) compounds.
(§2) All relevant BRD pathogens were initially screened at a top concentration of 64 μg/mL of a Formula (1) compound in an eleven-point dilution series. […] If an Example was purified further, the MICs moved […] essentially two dilutions across all strains tested in the screening panel.
(§3) In-Vitro MIC Model Compounds were analyzed for antibacterial activity against a panel of animal health specific gram-positive and gram-negative clinical strains by diluting compounds in DMSO to an appropriate stock concentration to determine the Minimal Inhibitory Concentration (MIC) via a semi-automated broth micro-dilution method (CLSI reference method) with QC strains and anti-microbial agent(s). Specifically, bacteria were grown overnight on TSA w/5% sheep blood agar plates and diluted in saline buffer to a McFarland Standard 0.5, then further diluted in cation-ion adjusted Mueller Hinton Broth to a final concentration of approximately 5×10^5 CFU/mL. 100 μL of inoculated media was added to 96-well plate(s) with 3 μL of serially diluted compound in each row. Depending on strain (see CLSI reference method), bacteria were incubated 18-22 hours at 35-37° C. in ambient air, with 5% CO2 or anaerobically (up to 48 hours).

The subject of test [2] is E. coli. The test can be described thus: MIC, E. coli. The test is classed as cell-based. The conditions noted are these: Escherichia coli.
Source text: as §1, §2, §3

Test [3] deals with P. multocida. As to the kind of experiment: Murine P. multocida intranasal challenge study, treatment 18 hours after challenge, survival. The following applies: subcutaneous 18 hours after challenge (5×10^3 CFU/mouse); tulathromycin 16 mg/kg, M9 32 mg/kg, ceftiofur 9 mg/kg. It counts as in vivo, mice. As to the method:
In one murine P. multocida intranasal challenge study, mice were administered tulathromycin (16 mg/kg; T02), M9 (32 mg/kg; T03), or ceftiofur (9 mg/kg; T04) by subcutaneous injection 18 hours after bacterial challenge (5×10^3 CFU/mouse) for lung tissue RNA sequence analysis. Survival at Day 7 was about 80%, 50%, and 90% for T02, T03, and T04, respectively, compared to placebo at 0%. Differential gene expression from total lung tissue RNA sequence analysis indicated at least 226 unique genes were up or down regulated (with significance) for T03. Output from ingenuity pathway analysis of these unique genes predicted major upstream regulators of the involved pathways. Data was analyzed based on the number of genes being modulated in the same direction that were associated with a given upstream regulator. An activation z-score of 2 or greater is considered significant and the direction change is indicated by + (activated) or -(inhibited). The top 5 pathways included: IL-9 signaling, glucocorticoid receptor signaling, prolactin signaling, JAK STAT signaling, and IL-17 signaling. The top 6 upstream regulators (activation z-score) included: lipopolysaccharide (−6.725), TNF (−4.669), IFNγ (−5.759), IL-1β (−5.947), STAT1 (−2.787), and poly rl: rC-RNA (−5.289). Even though this study was run in the murine model, the top upstream regulators identified as being modulated by M9 include an almost ubiquitous overlap with the pathways identified in the natural disease study as being key mediators in BRD, and therefore is modulating highly relevant pathways in BRD pathobiology.

Test [4] deals with M. haemolytica (strain: OSU-012103-BHI). As to the kind of experiment: Bovine M. haemolytica intratracheal lung challenge model, mortality. The test is classed as in vivo. The following applies: M. haemolytica challenge Day 0; subcutaneous Day -1; M9 10 mg/kg, Draxxin 2.5 mg/kg; 6 animals. As to the method: To evaluate immunomodulation effects and potential biomarkers, a bovine M. haemolytica (strain: OSU-012103-BHI) intratracheal lung challenge model study was completed utilizing M9 treatment in the presence and absence of bacterial challenge and a Draxxin® comparator. […] Animals were administered 0.05 mL/kg saline (T01), 10 mg/kg M9 (T02); Draxxin 2.5 mg/kg (T03) and 10 mg/kg M9 (T04) by subcutaneous injection on Day-1. Dose was based on body weight. Animals were challenge on Day 0 with the exception of T04. Blood was collected longitudinally throughout the study for biomarker evaluation panel (e.g., IL-6 and CD163) including two baseline samples prior to treatment. FIG. 4A depicts the area under the curve concentrations for IL-6 protein for individual animals against percent lung lesion scores and FIG. 4B depicts the CD163 fold change area under the curve for individual animals against percent lung lesion scores. Data is represented as percent lung lesion scores against the area under the curve (AUC) for IL-6 protein (immunoassay expressed in pg/mL) and CD163 (flow cytometric mean fluorescent intensity (MFI) in fold change from baseline). In both assays, a 2-fold change is typically considered to be relevant.

Test [5] has as its system IL-6. As to the kind of experiment: IL-6 biomarker in bovine M. haemolytica challenge. It counts as in vivo. As to the method:
Cytokine Detection—An MSD U-Plex cytokine assay was developed following the MSD U-Plex protocol guide and included biotinylated capture antibodies against: bovine Interleukin (IL)-1β (Biorad), bovine IL-6 (R&D Systems) and bovine tumor necrosis factor (TNF)-α (R&D Systems). The anti-IL-1β antibody was biotinylated using EZ-Link Sulfo-NHS-Biotin (Thermo Scientific) at a challenge ratio of 1:20 according to manufacturer instructions. Assay calibrators (Kingfisher) were diluted to a concentration of […] in control lithium heparin plasma, followed by 4-fold serial dilutions into plasma. The detection antibodies were sulfo-tagged following the MSD quick guide conjugation protocol using a challenge ratio of 1:20. Antibodies were used at the following concentrations: anti-IL-1β at 1 μg/mL, anti-IL-6 at 1 μg/mL and anti-TNF-α at 0.5 μg/mL. Cytokines were quantified according to manufacturer's instructions using a chemiluminescent readout. In brief, 0.5 mL of all biotinylated antibodies were diluted to 10 μg/mL with Diluent 100 and paired to their respective linkers by adding 750 μL of supplied Linker solution and incubated for 30 minutes followed by addition of Stop solution for another 30 minutes. […] Plates were washed a further three times before addition of 150 μL 2X Read buffer and read immediately on the SI6000 instrument (MSD). […]

Test [6] relates to M. haemolytica. As to the kind of experiment: MIC, M. haemolytica strains. The test is classed as cell-based.
Source text: as §1, §2, §3

Test [7] has as its system P. multocida. The test can be described thus: MIC, P. multocida strains. It counts as cell-based.
Source text: as §1, §2, §3

Test [8] deals with natural bovine respiratory disease (BRD). As to the kind of experiment: Natural bovine respiratory disease study, treatment failure. The following applies: Zactran group T04 (dose not given), 14-day observation. It counts as in vivo, beef calves.
[9] abbreviates: lung isolates at necropsy, natural BRD study, n=116.
The mark [10] stands for this setting: lung isolates at necropsy, natural BRD study, n=33.
The mark [11] stands for this setting: lung isolates at necropsy, natural BRD study, n=25.

≈ marks a conversion by molar mass, not a printed value. A value given as a limit tells only on which side of the number the result lay.

For `CCN1CCN(c2cc3c(cc2F)c(=O)c(C(=O)O)cn3C2CC2)CC1` [enrofloxacin], the “MIC values, range” value in test [1] was under 0.06 to 1 µg/mL.
The MIC is the lowest concentration that inhibits growth of the organism. As to `CCCNC[C@]1(O)[C@H](C)O[C@@H](O[C@H]2[C@H](C)[C@@H](O[C@@H]3O[C@H](C)C[C@H](N(C)C)[C@H]3O)[C@](C)(O)C[C@@H](C)CN[C@H](C)[C@@H](O)[C@](C)(O)[C@@H](CC)OC(=O)[C@@H]2C)C[C@@]1(C)OC` [tulathromycin, (2R,3S,4R,5R,8R,10R,11R,12S,13S,14R)-11-(((2S,3R,4S,6R)-4-(dimethylamino)-3-hydroxy-6-methyltetrahydro-2H-pyran-2-yl)oxy)-2-ethyl-3,4,10-trihydroxy-13-(((2R,4R,5S,6S)-5-hydroxy-4-methoxy-4,6-dimethyl-5-((propylamino)methyl)tetrahydro-2H-pyran-2-yl)oxy)-3,5,8, 10, 12, 14-hexamethyl-1-oxa-6-azacyclopentadecan-15-one], the MIC stood at 2 µg/mL (≈ 2.48 µM) in test [2] (E. coli 25922) and 8 µg/mL (≈ 9.92 µM) in test [2] (E. coli W3110). The “Survival at Day 7” value in test [3] is reported as “about 80%”. Further, in test [4], the Mortality was 0/6. The IL-6 levels result in test [5] is given as “significantly reduced IL-6 levels”.
As for `CS(=O)(=O)c1ccc([C@@H](O)[C@@H](CF)NC(=O)C(Cl)Cl)cc1` [florfenicol], in test [1], the “MIC values, range” value was 0.12 to 2 µg/mL.
The MIC50 is the lowest concentration that inhibits either 50% of growth or 50% of the strains tested, depending on the study. A higher MIC50 goes with lower susceptibility. Usually MIC90 stands for an inhibitory concentration at the 90% level, which refers to growth in some studies and to a panel of isolates in others. Lower therefore signals greater potency. With `CCCN1C[C@H](C)[C@@H](O)[C@](C)(O)[C@@H](CC)OC(=O)[C@H](C)[C@@H](O[C@H]2C[C@@](C)(OC)[C@@H](O)[C@H](C)O2)[C@H](C)[C@@H](O[C@@H]2O[C@H](C)C[C@H](N(C)C)[C@H]2O)[C@](C)(O)C[C@H]1C` [gamithromycin, reference compound], the MIC50 in test [6] (setting [9]) was 1 µg/mL (≈ 1.29 µM); in test [7] (setting [10]) it was 1 µg/mL (≈ 1.29 µM); in test [1] (setting [11]), 0.25 µg/mL (≈ 0.322 µM). For the same compound, the MIC90 in test [6] (setting [9]) is over 64 µg/mL; in test [7] (setting [10]), over 64 µg/mL; in test [1] (setting [11]) it was 2 µg/mL (≈ 2.57 µM). The figures for the “MIC values, range” value in test [6] (the same M. haemolytica strains of the panel), in test [7] (the same P. multocida strains of the panel) and in test [1] were 0.5 to 1 µg/mL, 1 to 2 µg/mL and 0.25 to 8 µg/mL, respectively. For the same compound, in test [1] (setting [11]), the “MIC Range” value lay in the range of 0.12 to 2 µg/mL. Also, the Percent failure in test [8] stood at 29.8%.
For the compound `CO/N=C(\C(=O)N[C@@H]1C(=O)N2C(C(=O)O)=C(CSC(=O)c3ccco3)CS[C@H]12)c1csc(N)n1` [ceftiofur], the “Survival at Day 7” value in test [3] was about 90%.
